Data from ChEMBL document CHEMBL6114989, “D-morphinan analogs with favorable pharmacokinetic profiles as dual-acting antidepressants” (Eur J Med Chem, 2025).
The source made the active and inactive calls. The rule behind the calls is not given here.

Columns and labels:
[1] = target: T1, Glutamate NMDA receptor; GRIN1/GRIN2A (Homo sapiens, UniProt Q05586+Q12879); assay: Inhibition of human GluN1/GluN2A NMDA receptor expressed in HEK293 cells assessed as reduction in glutamate induced current at -70 mV holding potential by whole-cell patch clamp technique; type: cell-based
T1 sequence (Q12879 whole entry, other chains not shown): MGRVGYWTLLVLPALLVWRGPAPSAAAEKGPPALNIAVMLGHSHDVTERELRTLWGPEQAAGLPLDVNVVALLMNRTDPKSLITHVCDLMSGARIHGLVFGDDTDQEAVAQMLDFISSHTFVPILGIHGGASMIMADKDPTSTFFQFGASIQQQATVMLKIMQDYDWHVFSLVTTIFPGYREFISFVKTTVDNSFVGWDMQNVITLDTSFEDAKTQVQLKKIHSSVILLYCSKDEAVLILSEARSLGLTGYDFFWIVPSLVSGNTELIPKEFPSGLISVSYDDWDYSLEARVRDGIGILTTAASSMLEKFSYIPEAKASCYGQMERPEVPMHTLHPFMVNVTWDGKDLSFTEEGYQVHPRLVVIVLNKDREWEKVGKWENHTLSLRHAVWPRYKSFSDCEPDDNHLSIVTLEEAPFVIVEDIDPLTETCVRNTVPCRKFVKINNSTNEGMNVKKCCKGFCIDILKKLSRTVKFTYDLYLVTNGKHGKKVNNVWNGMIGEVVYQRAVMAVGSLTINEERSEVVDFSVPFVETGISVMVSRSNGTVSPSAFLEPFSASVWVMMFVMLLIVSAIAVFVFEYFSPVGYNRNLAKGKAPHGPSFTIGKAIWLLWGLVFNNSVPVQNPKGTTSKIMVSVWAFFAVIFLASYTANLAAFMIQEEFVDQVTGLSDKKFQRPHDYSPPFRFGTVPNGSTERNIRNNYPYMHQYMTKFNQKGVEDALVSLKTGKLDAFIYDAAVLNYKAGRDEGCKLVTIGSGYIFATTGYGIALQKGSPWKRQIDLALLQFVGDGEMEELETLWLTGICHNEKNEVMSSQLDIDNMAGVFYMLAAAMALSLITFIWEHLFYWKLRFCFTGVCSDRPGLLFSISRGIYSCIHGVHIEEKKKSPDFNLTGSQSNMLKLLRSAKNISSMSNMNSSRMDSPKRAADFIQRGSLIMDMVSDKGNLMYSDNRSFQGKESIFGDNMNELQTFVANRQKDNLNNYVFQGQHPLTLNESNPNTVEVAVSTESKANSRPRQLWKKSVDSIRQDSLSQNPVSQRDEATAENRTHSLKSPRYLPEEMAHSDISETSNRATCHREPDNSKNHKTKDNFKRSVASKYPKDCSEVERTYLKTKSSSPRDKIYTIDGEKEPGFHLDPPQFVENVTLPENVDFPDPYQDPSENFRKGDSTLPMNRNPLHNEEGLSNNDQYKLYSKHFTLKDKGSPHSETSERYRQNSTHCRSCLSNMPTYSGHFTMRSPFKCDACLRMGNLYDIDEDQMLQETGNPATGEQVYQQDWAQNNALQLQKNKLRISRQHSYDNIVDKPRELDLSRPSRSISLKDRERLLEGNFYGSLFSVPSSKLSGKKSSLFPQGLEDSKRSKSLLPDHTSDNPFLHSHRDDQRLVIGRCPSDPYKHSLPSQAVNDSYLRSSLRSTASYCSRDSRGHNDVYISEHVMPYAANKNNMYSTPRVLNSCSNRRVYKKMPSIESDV

[2] = target: T2, Sodium-dependent dopamine transporter (Homo sapiens, UniProt Q01959); assay: Inhibition of DAT (unknown origin) at 10 uM relative to control
T2 sequence (Q01959 whole entry): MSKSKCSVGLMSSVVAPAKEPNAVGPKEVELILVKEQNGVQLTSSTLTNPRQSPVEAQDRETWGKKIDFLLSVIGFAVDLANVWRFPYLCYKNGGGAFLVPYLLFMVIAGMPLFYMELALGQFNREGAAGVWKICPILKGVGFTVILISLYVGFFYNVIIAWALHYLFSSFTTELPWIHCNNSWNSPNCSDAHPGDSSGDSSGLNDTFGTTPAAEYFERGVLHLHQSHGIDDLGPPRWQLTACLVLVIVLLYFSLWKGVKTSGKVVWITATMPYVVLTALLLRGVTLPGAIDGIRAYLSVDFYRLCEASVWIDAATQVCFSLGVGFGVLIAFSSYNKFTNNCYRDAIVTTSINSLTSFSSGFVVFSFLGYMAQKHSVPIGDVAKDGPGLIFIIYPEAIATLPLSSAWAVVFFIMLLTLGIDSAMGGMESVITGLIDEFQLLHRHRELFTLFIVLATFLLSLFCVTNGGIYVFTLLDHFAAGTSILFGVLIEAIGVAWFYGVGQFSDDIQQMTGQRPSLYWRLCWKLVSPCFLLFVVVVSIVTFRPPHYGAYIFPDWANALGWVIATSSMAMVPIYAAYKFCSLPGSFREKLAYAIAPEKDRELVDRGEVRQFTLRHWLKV

[3] = target: T3, Mu-type opioid receptor (Homo sapiens, UniProt P35372); assay: Agonist activity at human mu-opioid receptor stably expressed in CHO cells assessed as inhibition of forskolin-induced cAMP accumulation at 30 uM preincubated with compound for 10 mins followed by forskolin induction and measured after 30 mins by LANCE Ultra cAMP assay relative to control; type: functional, cell-based; details: time 40.0 min
T3 sequence (P35372 whole entry): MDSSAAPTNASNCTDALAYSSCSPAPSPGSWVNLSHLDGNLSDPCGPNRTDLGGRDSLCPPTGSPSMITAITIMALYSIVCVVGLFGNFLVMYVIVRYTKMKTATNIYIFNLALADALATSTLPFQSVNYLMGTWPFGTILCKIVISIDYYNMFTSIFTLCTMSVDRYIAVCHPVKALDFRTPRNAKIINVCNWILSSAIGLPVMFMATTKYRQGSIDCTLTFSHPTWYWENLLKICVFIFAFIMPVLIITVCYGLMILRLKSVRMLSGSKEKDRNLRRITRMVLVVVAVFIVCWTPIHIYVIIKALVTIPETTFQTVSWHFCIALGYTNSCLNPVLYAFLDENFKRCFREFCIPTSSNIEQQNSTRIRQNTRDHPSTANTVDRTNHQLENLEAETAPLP

[4] = target: T4, Sodium-dependent noradrenaline transporter (Homo sapiens, UniProt P23975); assay: Inhibition of human NET
T4 sequence (P23975 whole entry): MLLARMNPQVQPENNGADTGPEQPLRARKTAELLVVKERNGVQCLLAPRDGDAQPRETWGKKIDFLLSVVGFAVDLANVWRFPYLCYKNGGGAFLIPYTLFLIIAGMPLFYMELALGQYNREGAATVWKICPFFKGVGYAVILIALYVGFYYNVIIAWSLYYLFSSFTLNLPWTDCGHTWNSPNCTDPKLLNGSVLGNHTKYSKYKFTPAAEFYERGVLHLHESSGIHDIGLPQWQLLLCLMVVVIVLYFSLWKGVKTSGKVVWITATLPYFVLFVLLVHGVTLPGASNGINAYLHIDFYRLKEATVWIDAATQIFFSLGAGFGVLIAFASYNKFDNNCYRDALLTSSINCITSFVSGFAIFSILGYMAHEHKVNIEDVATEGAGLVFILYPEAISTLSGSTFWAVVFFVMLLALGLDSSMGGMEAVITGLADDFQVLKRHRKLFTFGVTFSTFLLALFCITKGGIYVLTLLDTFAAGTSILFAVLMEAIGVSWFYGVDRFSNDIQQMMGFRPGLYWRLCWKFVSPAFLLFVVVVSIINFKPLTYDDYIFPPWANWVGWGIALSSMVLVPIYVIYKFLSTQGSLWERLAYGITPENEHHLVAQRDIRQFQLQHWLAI

[5] = target: Sodium-dependent serotonin transporter (Homo sapiens, UniProt P31645)
Chain of Sodium-dependent serotonin transporter (P31645 whole entry): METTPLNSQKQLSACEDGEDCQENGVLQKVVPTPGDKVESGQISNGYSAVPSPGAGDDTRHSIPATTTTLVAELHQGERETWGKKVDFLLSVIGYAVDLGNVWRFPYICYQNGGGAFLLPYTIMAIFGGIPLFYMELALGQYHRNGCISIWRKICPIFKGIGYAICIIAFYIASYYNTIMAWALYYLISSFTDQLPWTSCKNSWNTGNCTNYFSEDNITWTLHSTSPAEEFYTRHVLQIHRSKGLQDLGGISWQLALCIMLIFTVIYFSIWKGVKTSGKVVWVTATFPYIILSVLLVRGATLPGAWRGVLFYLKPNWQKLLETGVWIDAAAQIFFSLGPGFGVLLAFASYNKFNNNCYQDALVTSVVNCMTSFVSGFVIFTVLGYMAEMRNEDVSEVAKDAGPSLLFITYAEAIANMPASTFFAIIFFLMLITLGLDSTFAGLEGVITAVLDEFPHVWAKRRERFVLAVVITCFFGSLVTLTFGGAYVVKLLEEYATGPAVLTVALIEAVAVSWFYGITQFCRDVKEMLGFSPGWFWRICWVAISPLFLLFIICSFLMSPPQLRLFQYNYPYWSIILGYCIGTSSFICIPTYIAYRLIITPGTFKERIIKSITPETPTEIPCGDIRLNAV

[6] = target: T4, Sodium-dependent noradrenaline transporter; assay: Inhibition of NET (unknown origin) at 10 uM relative to control
[7] = target: T1, Glutamate NMDA receptor; GRIN1/GRIN2A; assay: Antagonist activity at human GluN1/GluN2A NMDA receptor expressed in HEK293 cells assessed as reduction in glutamate induced current at -70 mV holding potential by whole-cell patch clamp technique; type: cell-based
[8] = Selectivity index, ratio of IC50 for inhibition of human GluN1/GluN2A NMDA receptor expressed in HEK293 cells to IC50 for inhibition of SERT (unknown origin); type: cell-based
[9] = target: T2, Sodium-dependent dopamine transporter; assay: Inhibition of DAT (unknown origin)
[10] = Hepatotoxicity against human HepG2 cells assessed as inhibition of cell proliferation incubated for 48 hrs by celltiter-luminescence assay; type: toxicity, cell-based
[11] = Nephrotoxicity against human HEK293 cells assessed as inhibition of cell proliferation incubated for 48 hrs by celltiter-luminescence assay; type: toxicity, cell-based
[12] = target: T3, Mu-type opioid receptor; assay: Agonist activity at human mu-opioid receptor stably expressed in CHO cells assessed as inhibition of forskolin-induced cAMP accumulation preincubated with compound for 10 mins followed by forskolin induction and measured after 30 mins by LANCE Ultra cAMP assay; type: functional, cell-based
[13] = Tmax in ICR mouse at 10 mg/kg, ip measured upto 24 hrs by LC-MS/MS analysis; type: ADME, organism-based; details: in vivo
[14] = MRT (0 to t) in ICR mouse at 10 mg/kg, po measured upto 24 hrs by LC-MS/MS analysis; type: ADME, organism-based; details: in vivo
[15] = AUC (0 to infinity) in ICR mouse at 10 mg/kg, ip measured upto 24 hrs by LC-MS/MS analysis; type: ADME, organism-based; details: in vivo
[16] = Metabolic stability in mouse liver microsome assessed as intrinsic clearance in presence of NADPH measured upto 60 mins by LC-MS/MS analysis; type: ADME; details: liver microsomes, read-out: CLH
[17] = Metabolic stability in mouse liver microsome assessed as half life in presence of NADPH measured upto 60 mins by LC-MS/MS analysis; type: ADME; details: liver microsomes
[18] = AUC (0 to t) in ICR mouse at 10 mg/kg, ip measured upto 24 hrs by LC-MS/MS analysis; type: ADME, organism-based; details: in vivo
[19] = Cmax in ICR mouse at 10 mg/kg, ip measured upto 24 hrs by LC-MS/MS analysis; type: ADME, organism-based; details: in vivo
[20] = Metabolic stability in mouse liver microsome assessed as hepatic extraction ratio in presence of NADPH measured upto 60 mins by LC-MS/MS analysis; type: ADME; details: liver microsomes, read-out: ERH
[21] = Metabolic stability in mouse liver microsome assessed as hepatic clearance in presence of NADPH measured upto 60 mins by LC-MS/MS analysis; type: ADME; details: liver microsomes
[22] = Cmax in ICR mouse at 10 mg/kg, po measured upto 24 hrs by LC-MS/MS analysis; type: ADME, organism-based; details: in vivo
[23] = test system: Mus musculus; assay: Antidepressant activity in ip dosed C57BL/6J mouse assessed as reduction in of immobility time by forced swim test; type: functional, organism-based; details: dose 10-20 mg/kg
[24] = AUC (0 to infinity) in ICR mouse at 10 mg/kg, po measured upto 24 hrs by LC-MS/MS analysis; type: ADME, organism-based; details: in vivo
[25] = MRT (0 to infinity) in ICR mouse at 10 mg/kg, ip measured upto 24 hrs by LC-MS/MS analysis; type: ADME, organism-based; details: in vivo
[26] = Half life in ICR mouse at 10 mg/kg, po measured upto 24 hrs by LC-MS/MS analysis; type: ADME, organism-based; details: in vivo
[27] = AUC (0 to t) in ICR mouse at 10 mg/kg, po measured upto 24 hrs by LC-MS/MS analysis; type: ADME, organism-based; details: in vivo
[28] = Tmax in ICR mouse at 10 mg/kg, po measured upto 24 hrs by LC-MS/MS analysis; type: ADME, organism-based; details: in vivo
[29] = Half life in ICR mouse at 10 mg/kg, ip measured upto 24 hrs by LC-MS/MS analysis; type: ADME, organism-based; details: in vivo

Compound	IC50 [1] [µM]	inhibition [2]	inhibition [3] [%]	IC50 [5] [µM]	inhibition [6]	also measured
CCN1CC[C@@]23CCCC[C@@H]2[C@@H]1Cc1ccc(O)cc13	0.28	12%	9	5400	–	IC50 [4]: 10.6 µM
CC(O)c1ccc2c(c1)[C@]13CCCC[C@@H]1[C@H](C2)N(C)CC3 (some centres not stated)	–	inactive	8	1090	39%	–
CCc1ccc2c(c1)[C@]13CCCC[C@@H]1[C@H](C2)N(CC)CC3	9.87	5%	10	2300	24%	–
c1ccc2c(c1)C[C@@H]1NCC[C@]23CCCC[C@H]13	–	20%	–	8300	14%	IC50 [7]: 0.43 µM; inhibition ([3]; filed as agonist): 95%
CN1CC[C@@]23CCCC[C@@H]2[C@@H]1Cc1ccc(C(=O)NC2CC2)cc13	9.23	6%	–	5660	inactive	inhibition ([3]; filed as agonist): 60%
CCOc1ccc2c(c1)[C@]13CCCC[C@@H]1[C@H](C2)NCC3	0.34	16%	24	463	12%	–
Cc1ccc2c(c1)[C@]13CCCC[C@@H]1[C@H](C2)N(C)CC3 [DIMEMORFAN]	2.96	inactive	21	148	–	Ratio IC50 [8]: 20; IC50 [4]: 1.22 µM
Cc1ccc2c(c1)[C@]13CCCC[C@@H]1[C@H](C2)NCC3	0.28	inactive	16	2090	–	IC50 [4]: 5.72 µM
CN1CC[C@@]23CCCC[C@@H]2[C@@H]1Cc1ccc(C(C)(C)O)cc13	> 40	inactive	11	9000	inactive	–
CCN1CC[C@@]23CCCC[C@@H]2[C@@H]1Cc1ccccc13	4.92	inactive	–	11300	23%	inhibition ([3]; filed as agonist): 40%
COC(=O)c1ccc2c(c1)[C@]13CCCC[C@@H]1[C@H](C2)N(C)CC3	4.77	inactive	–	17	12%	inhibition ([3]; filed as agonist): 88%
CN1CC[C@@]23CCCC[C@@H]2[C@@H]1Cc1ccccc13	2.96	15%	39	333	–	IC50 [4]: 17.3 µM
COc1ccc2c(c1)[C@]13CCCC[C@@H]1[C@H](C2)NCC3	0.3	4%	23	1170	44%	–
CCOc1ccc2c(c1)[C@]13CCCC[C@@H]1[C@H](C2)N(C)CC3	1.81	10%	26	15	33%	–
CN1CC[C@@]23CCCC[C@@H]2[C@@H]1Cc1ccc(NC=O)cc13	3.07	6%	33	270	inactive	–
c1ccc2cc([C@]34CNC[C@H]3C4)ccc2c1 [CENTANAFADINE]	–	–	–	90	–	Activity [3]: inactive; IC50 [4]: 0.01 µM; IC50 [9]: 0.06 µM
CCc1ccc2c(c1)[C@]13CCCC[C@@H]1[C@H](C2)N(C)CC3	5.18	13%	23	238	–	IC50 [4]: 4.9 µM
Cc1ccc(Sc2ccccc2N2CCNCC2)c(C)c1 [VORTIOXETINE]	–	–	–	–	–	IC50 at 48 h [10]: 8.1 µM; IC50 at 48 h [11]: 12.2 µM
CNc1ccc2c(c1)[C@]13CCCC[C@@H]1[C@H](C2)N(C)CC3	6.23	10%	14	577	25%	–
CN1CC[C@@]23CCCC[C@@H]2[C@@H]1Cc1ccc(NC(=O)c2ccccc2)cc13	2.2	15%	14	7600	inactive	–
CCc1ccc2c(c1)[C@]13CCCC[C@@H]1[C@H](C2)NCC3	0.5	inactive	33	1890	–	IC50 [4]: 4.71 µM
CN1CC[C@@]23CCCC[C@@H]2[C@@H]1Cc1ccc(C(N)=O)cc13	3.01	inactive	–	123	12%	EC50 [12]: 25 µM
CC(=O)c1ccc2c(c1)[C@]13CCCC[C@@H]1[C@H](C2)N(C)CC3	> 40	inactive	–	130	inactive	inhibition ([3]; filed as agonist): 87%
CNC(=O)c1ccc2c(c1)[C@]13CCCC[C@@H]1[C@H](C2)N(C)CC3	19.9	15%	25	335	12%	–
CN1CC[C@@]23CCCC[C@@H]2[C@@H]1Cc1ccc(O)cc13 [DEXTRORPHAN]	0.28	inactive	–	633	–	IC50 [4]: 2.84 µM
CC(=O)Nc1ccc2c(c1)[C@]13CCCC[C@@H]1[C@H](C2)N(C)CC3	2.17	19%	36	435	inactive	Tmax [13]: 4.8 min; MRT last at 24 h [14]: 62.4 min; AUC(0-inf) [15]: 1080 ng·h/mL; CLint scaled [16]: 35.1 mL/min/kg; half-life [17]: 267 min; AUC(0-t) at 24 h [18]: 1080 ng·h/mL; Cmax [19]: 1680 ng/mL; hepatic extraction ratio at 1 h [20]: 0.281; CLhep predicted [21]: 25.3 mL/min/kg; Cmax [22]: 1040 ng/mL; Activity [23]: Dose-dependent-effect; AUC(0-inf) [24]: 1220 ng·h/mL; MRT inf [25]: 40.8 min; half-life [26]: 51.6 min; AUC(0-t) at 24 h [27]: 1220 ng·h/mL; Tmax [28]: 11.4 min; half-life [29]: 44.4 min
CCOc1ccc2c(c1)[C@]13CCCC[C@@H]1[C@H](C2)N(CC)CC3	1.3	6%	4	2000	26%	–
